Laboratory results from patent US20040180959A1, “Gabapentin analogues for fibromy algia and concomitant disorders” (priority 2002, published 2004).

Legend:
Wistar rats = test: Water-lick (Vogel) Conflict Test in rats; assay type: in vivo; conditions: for Percent of Animals Tested With >20 Shock Episodes / Mean Shock Episodes (1 mA): pretreatment 120 minutes; for Mean Shock Episodes (1 mA): Mean ± SEM
Description: In each experiment, naive adult male Wistar rats between 170 to 200 g were randomly divided into groups (N=10-30/group) and deprived of water for 48 hours prior to testing. Food was available on Day 1 and removed 24 hours prior to test Day 2.
Apparatus: The modular operant test cage (Coulbourn Instruments) measures 10.25×12×12 in. The test chambers feature 3 modular bays on each side of the cage for a total of 6 bays. A module optical lickometer is mounted on one side of the chamber 5 cm above the grid floor. The lickometer is used to measure licking-drinking from a water bottle mounted outside the test chamber. A photo beam is piped via glass rods to the tip of the drink tube across a gap at the end of the tube. The animals tongue breaks the beam on each lick. The front and back of the test chamber is made of clear Plexiglas. The front door is covered to reduce distractions from inside the test room. The back of the test chamber is facing a wall, away from the flow of traffic within the testing room and remains uncovered to provide the opportunity for observations during testing. Shocks are delivered using a (Coulbourn) programmable universal shocker calibrated to deliver a 1 mA shock for 1 second through the drink tube.
Procedure: On Day 1, after a 24-hour water deprivation, experimental subjects were placed into the test chambers and allowed to drink unpunished. Drinking was limited to 500 responses or approximately 5 mL of water during a 10 minute session. Immediately following the unpunished drinking session, rats were returned to their home cages, deprived of water for an additional 24 hours and was food deprived. […] After the pretreatment period rats were placed into a test chamber and allowed to drink for 10 minutes. After every 10 licks, rats received a 1-second shock (1 mA) through the drink tube. Thus, a conflict or anxiety-producing situation exists. Rats are motivated to drink; however, they are inhibited by the shock. Anxiety is reflected by the low amounts of drinking. Standard anxiolytic drugs produce effects that allow rats to overcome this behavioral inhibition and drink despite the shock.
All data were analyzed using a Kruskal-Wallis one Way Analysis of Variance on Ranks and Mann-Whitney Rank Sum Tests.
Quantitative Analysis: A quantitative analysis represents the percentage of subjects within a treatment group that receives >20 shock episodes during a test session. This number provides a quantitative comparison regarding the distribution of the responses.
Compound A was dissolved in water and tested orally as a solution from 0.3 to 100 mg/kg in rats and 3 to 300 mg/kg in mice. Dosages are expressed as the active moiety and were administered in a volume of 1 mL/kg for rats and 10 mL/kg for mice.

Sprague-Dawley rats = test: Rat model of footpad tactile allodynia from prior injection of acid into the gastrocnemius muscle; assay type: in vivo; conditions: for Mean Paw Withdrawal Threshold before dose (g ± S.E.M.): after acid injection
Description: A rat model of persistent mechanical allodynia has been developed that is consistent with the muscle tenderness found in these patients. […] This model was utilized to evaluate compound A for its ability to inhibit allodynia.
On Day 0, male Sprague-Dawley rats (˜200 g body weight) in their dark cycle were placed in suspended wire-bottom cages and allowed to acclimate for 0.5 hours. […] Von Frey hairs were applied to the plantar surface for up to 6 seconds, and a flinching of the paw during that time frame was considered a positive response. After assessment, the right gastrocnemius muscle was shaved, swabbed with alcohol, and injected with 0.1 mL of 0.9% NaCl solution acidified to pH 4 with HCl. The injection was repeated on Day 5. Animals were manipulated with a dynamic plantar aesthesiometer (Ugo Basile, Comerio-Varese, Italy) on Days 6, 7, and 8 to facilitate induction of the allodynia. To screen the rats for the development of allodynia, the 15.1 g Von Frey hair was applied to the ipsilateral paw on Day 11. Positive responders from that test were included in the compound evaluation study. On Day 12 (the day of peak allodynia), animals were assigned into treatment groups, and then their ipsilateral paw withdrawal thresholds were determined to establish the allodynia (reduction in paw withdrawal threshold) compared to baseline values. Rats were then orally dosed with 10 mL/kg vehicle (0.5% hydroxypropyl-methylcellulose/0.2% Tween 80) or the indicated dose of compound A. Paw withdrawal thresholds were reassessed by Von Frey hairs in blinded fashion 2 hours after dosing for the dose-response study, and 2, 5, 8, and 24 hours after dosing in the time course experiment. The inhibition of allodynia was determined for each animal by dividing the increase in paw withdrawal threshold after treatment by the difference between baseline and pretreatment paw withdrawal values. This fraction was then converted to percent inhibition by multiplying by 100.

[1] = doses 3× and 10× the Vogel MED (10 and 30 mg/kg)
[2] = oral, 2 hour pretreatment, rats
[3] = 10 mg/kg oral, 2 hours after treatment (Table II)
[4] = 10 mg/kg oral, 2 hr after dose (Table I)
[5] = 10 mg/kg oral, 5 hours after treatment
[6] = 10 mg/kg oral, 8 hours after treatment
[7] = 10 mg/kg oral, 24 hours after treatment

## C[C@H]1CC(CN)(CC(=O)O)C[C@@H]1C [Compound A, (3S, 4S)-(1-Aminomethyl-3,4-dimethyl-cyclopentyl)-acetic acid]
Wistar rats; 0.3 mg/kg PO
  Percent of Animals Tested With >20 Shock Episodes: 20%
  Mean Shock Episodes (1 mA): 16.5 ± 8.7
Wistar rats; 1 mg/kg PO
  Percent of Animals Tested With >20 Shock Episodes: 10%
  Mean Shock Episodes (1 mA): 11.7 ± 4.2
Wistar rats; 3 mg/kg PO
  Percent of Animals Tested With >20 Shock Episodes: 17%
  Mean Shock Episodes (1 mA): 16.7 ± 4.3
Wistar rats; 3 mg/kg, 1 hr post treatment
  Shock episodes (time-course): 38.8 ± 12.2
Wistar rats; 3 mg/kg, 2 hr post treatment
  Shock episodes (time-course): 55.7 ± 12.7
Wistar rats; 3 mg/kg, 4 hr post treatment
  Shock episodes (time-course): 38.4 ± 12.2
Wistar rats; 3 mg/kg, 6 hr post treatment
  Shock episodes (time-course): 44.7 ± 13.3
Wistar rats; 3 mg/kg, 8 hr post treatment
  Shock episodes (time-course): 7.7 ± 1.2
Wistar rats; 10 mg/kg PO
  Percent of Animals Tested With >20 Shock Episodes: 43%
  Mean Shock Episodes (1 mA): 33.8 ± 6.2
Wistar rats; 10 mg/kg, 30 min. post treatment
  Shock episodes (time-course): 14.1 ± 3.1
Wistar rats; 10 mg/kg, 1 hr post treatment
  Shock episodes (time-course): 28.2 ± 7.6
Wistar rats; 10 mg/kg, 2 hr post treatment
  Shock episodes (time-course): 29.6 ± 8.0
Wistar rats; 10 mg/kg, 4 hr post treatment
  Shock episodes (time-course): 47.7 ± 11.7
Wistar rats; 10 mg/kg, 6 hr post treatment
  Shock episodes (time-course): 38.4 ± 13.2
Wistar rats; 30 mg/kg PO
  Percent of Animals Tested With >20 Shock Episodes: 67%
  Mean Shock Episodes (1 mA): 46.3 ± 7.6
Wistar rats; 30 mg/kg, 30 min. post treatment
  Shock episodes (time-course): 35.8 ± 12.6
Wistar rats; 30 mg/kg, 1 hr post treatment
  Shock episodes (time-course): 93.3 ± 12.1
Wistar rats; 30 mg/kg, 2 hr post treatment
  Shock episodes (time-course): 88.4 ± 7.4
Wistar rats; 30 mg/kg, 4 hr post treatment
  Shock episodes (time-course): 73.5 ± 12.2
Wistar rats; 30 mg/kg, 6 hr post treatment
  Shock episodes (time-course): 97.4 ± 11.1
Wistar rats; 100 mg/kg PO
  Percent of Animals Tested With >20 Shock Episodes: 90%
  Mean Shock Episodes (1 mA): 52.8 ± 10.9
Wistar rats; 10 and 30 mg/kg respectively
  Time of peak activity after treatment: 4 to 6 h
Wistar rats; MED dose 3 mg/kg
  Activity maintained through: 6 h
  Onset of activity after treatment: 2 h
  Time of peak activity: 2 h
Wistar rats; [1]
  Activity maintained through: 6 h
  Onset of activity after treatment: 1 h
Wistar rats; [2]
  Dose of maximal anti-conflict effects: 100 mg/kg
  MED for anti-conflict activity: 3 mg/kg
Sprague-Dawley rats; 3 mg/kg group, before oral dose
  Mean Paw Withdrawal Threshold before dose (g ± S.E.M.): 6.3 ± 0.8 g
Sprague-Dawley rats; 3 mg/kg oral, 2 hr after dose
  Mean % Inhibition of Allodynia: 33%
  Mean Paw Withdrawal Threshold 2 hr after dose (g ± S.E.M.): 11.4 ± 1.7 g
Sprague-Dawley rats; 10 mg/kg group, Prior to Treatment (Table II)
  Mean Paw Withdrawal Threshold (g ± S.E.M.): 6.5 ± 0.9 g
Sprague-Dawley rats; 10 mg/kg group, before oral dose (Table I)
  Mean Paw Withdrawal Threshold before dose (g ± S.E.M.): 6.2 ± 1.0 g
Sprague-Dawley rats; 10 mg/kg oral
  Efficacy sustained throughout observation period after dosing: ≥ 24 h
Sprague-Dawley rats; [3]
  Mean % Inhibition of Allodynia: 60% ± 10
  Mean Paw Withdrawal Threshold after treatment (g ± S.E.M.): 16.0 ± 1.4 g
Sprague-Dawley rats; [4]
  Mean % Inhibition of Allodynia: 72%
  Mean Paw Withdrawal Threshold 2 hr after dose (g ± S.E.M.): 17.4 ± 1.5 g
Sprague-Dawley rats; [5]
  Mean % Inhibition of Allodynia: 62% ± 10
  Mean Paw Withdrawal Threshold after treatment (g ± S.E.M.): 15.2 ± 1.8 g
Sprague-Dawley rats; [6]
  Mean % Inhibition of Allodynia: 31% ± 12
  Mean Paw Withdrawal Threshold after treatment (g ± S.E.M.): 9.9 ± 2.0 g
Sprague-Dawley rats; [7]
  Mean % Inhibition of Allodynia: 46% ± 17
  Mean Paw Withdrawal Threshold after treatment (g ± S.E.M.): 13.3 ± 2.8 g
Sprague-Dawley rats; oral, 2 hours after dosing
  Minimum effective dose for attenuating allodynia: 10 mg/kg
